Laboratory results taken from patent US5270206A, “Enzymatic resolution of endo-bicyclo[2.2.1]heptan-2-ol and derived pharmaceutical agents” (Pfizer Inc., priority 1992, dated 1993).

What was measured:
PDEIV = assay: Inhibition of Pulmonary Phosphodiesterase (PDEIV); type: biochemical; settings: guinea pig lung PDEIV, 1 μM [3H]-cAMP, 37° C., 10 minutes; read-out: IC50 (concentration inhibiting 50% of specific hydrolysis of [3H]cAMP to [3H]5'AMP)
Description: Lung tissue from guinea pigs was placed in a homogenization buffer solution (20 mM Bistris, 5 mM 2-mercaptoethanol, 2 mM benzamidine, 2 mM EDTA, 50 mM sodium acetate, pH 6.5) at a concentration of 10 ml/gm of tissue. The tissue was homogenized using a Tekmar Tissumizer at full speed for 10 seconds. Phenylmethylsulfonyl fluoride (PMSF, 50 mM in 2-propanol) was added to the buffer immediately prior to homogenization to give a final PMSF concentration of 50 μM. The homogenate was centrifuged at 12,000×g for 10 minutes at 4° C. The supernatant was filtered through gauze and glass wool and then applied to a 17×1.5 cm column of DEAE-Sepharose CL-6B, pre-equilibrated with homogenization buffer, at 4° C. A flow rate of 1 ml/min was used. After the supernatant had passed through the column, the column is washed with a volume of homogenization buffer at least two times that of the supernatant. […] Fractions were saved based on specific PDEIV activity, determined by [3H]cAMP hydrolysis and the ability of a […]. […]
The reaction tubes were shaken and placed in a water bath (37° C.) for 10 minutes, at which time the reaction was stopped by placing the tubes in a boiling water bath for 2 minutes. […] After vortexing, 1 ml of the elution was added to 3 ml Atomlight scintillation fluid in an appropriate vial, vortexed, and counted for [3H].
Percent inhibition is determined by the formula: [formula] […]

[1] = test system: eosinophil migration into sensitized lung tissue; assay: Inhibition of eosinophil migration into sensitized lung tissue challenged with antigen in guinea pigs (EPO response in lung lavage); type: in vivo, guinea pig; settings: Cavia porcellus, po, guinea pigs sensitized with anti-OA IgG1, dosed P.O., ovalbumin aerosol, lung lavage after 18 hours, read-out: ED50 (inhibition of specific EPO response due to antigen challenge)
Description: Normal Hartley guinea pigs (300-350 grams) delivered from Charles River Laboratories were housed 5-7 days before sensitization. Guinea pigs were then sensitized with 0.5 mg/kg anti-OA IgGl or saline as control. After 48-72 hours, guinea pigs were dosed P.O. in groups of six animals each with compounds at up to 32 mg/kg using 2% Tween 80 as vehicle. After 1-1.5 hours the animals were injected i.p. with 5 mg/kg pyrilamine. Thirty minutes following pyrilamine administration, animals were exposed to 10 minutes of a 0.1% ovalbumin (OA) aerosol followed by a 15 minute cloud decay period in a Tri-R Airborne Infection Apparatus (Compression air flow=20 L/min, main air flow=8.4 L/min). Guinea pigs were removed from the apparatus and caged for 18 hours prior to sacrifice and the following lung lavage procedure. […]
The aliquoted sample with Triton was diluted with 1 ml PBS/0.1% Triton buffer (pH 7.0). […] The O.D. of the mixture was measured at 490 nm, with background O.D. (blank tube) subtracted out.
Duplicate O.D. readings were averaged to obtain a single value for each animal. Average O.D. +/- standard error is calculated using the six obtained values within each group of animals. Specific EPO response due to antigen challenge is calculated by: […]
Percent inhibition of specific EPO response due to drug pretreatment is calculated by: [formula]

[2] = test system: antigen-induced skin edema; assay: Inhibition of Skin Edema in Guinea Pigs Sensitized to Ovalbumin; type: in vivo, guinea pig; settings: 32 mg/Kg oral, two guinea pigs, intradermal ovalbumin challenge one hour after dosing, read after twenty minutes
Description: Four guinea pigs (Hartley, male, 350-400 g) were sensitized with anti-ovalbumin IgGI antibody. Two guinea pigs were orally dosed with 32 mg/Kg of the test compound and two other guinea pigs were dosed with vehicle (2% Tween-80). One-hour after dosing, each guinea pig was injected intraveneously with 1 ml of Evan Blue (7 mg/ml) and then his skin was challenged intradermally with 0.1 ml of ovalbumin (0.1%) or PBS. Twenty minutes after challenge, the skin was removed and skin edematous site (circular blue spots at challenge sites) was examined visually.

[3] = test system: phosphodiesterases prepared from cerebral cortices of rats; settings: phosphodiesterases from rat cerebral cortices; noted at page 25 of W087/06576; cited from earlier work

IC50 (PDEIV): 0.5 µM
SMILES: COc1ccc(C2CNC(=O)NC2)cc1O[C@H]1C[C@@H]2CC[C@H]1C2 (relative stereo) [5-(3-(exo-bicyclo[2.2.1]hept-2-yloxy)-4-methoxyphenyl)-3,4,5,6-tetrahydropyrimidin-2(1H)-one]
ED50 [1]: 10 mg/kg
intensity and area of blue spots (skin edema) at antigen-challenged sites vs vehicle-dosed animals [2]: markedly reduced
in vitro activity as an inhibitor of phosphodiesterases [3]: possesses in vitro activity as an inhibitor
